Here are results for ten molecules from PubChem BioAssay (NCI).

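In this assay, cells in 96-well plates receive the compound at five concentrations for 48 hours. Endpoints are linearly interpolated between the surrounding concentrations. TGI is the concentration that stops growth completely.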 Bounds are passed on as bounds.

Test systems include OVCAR-4 ovarian; RXF 393 renal; SK-OV-3 ovarian; SF-539 CNS; SK-MEL-5 melanoma; ACHN renal; IGROV1 ovarian; SNB-75 CNS; CAKI-1 renal; EKVX NSCLC.
What all share (assay): NCI-60 cell line screen, 48 h

`COC(=O)C1=C(C(=O)OC)SC2(S1)C(C(=O)OC)=C(C(=O)OC)Sc1c2ssc1=Nc1ccc(Cl)cc1`: the TGI in the experiment on OVCAR-4 ovarian came out at 2.43 µM; with RXF 393 renal it was 0.894 µM; in the experiment with SK-OV-3 ovarian, 4.29 µM; in the experiment on SF-539 CNS, 1.68 µM; in the experiment with SK-MEL-5 melanoma, 2.96 µM; in the experiment on ACHN renal, 2.7 µM. In addition, the TGI with IGROV1 ovarian amounted to 2.48 µM; in the experiment on SNB-75 CNS it was 2.3 µM; in the experiment with CAKI-1 renal, 2.21 µM; in the experiment on EKVX NSCLC, 2.8 µM.

As for `O=C1C=CC(=O)c2c1ccc1c3ccccc3n(-c3ccccc3[N+](=O)[O-])c21`, the TGI is 10.2 µM in the experiment on OVCAR-4 ovarian; 3.24 µM with RXF 393 renal; 33 µM in the experiment with SK-OV-3 ovarian; over 65.2 µM in the experiment with SF-539 CNS; 21.2 µM in the experiment on SK-MEL-5 melanoma; 3.46 µM with ACHN renal. In addition, the TGI in the experiment on IGROV1 ovarian was 4.9 µM; in the experiment on SNB-75 CNS it was 35.7 µM; in the experiment on CAKI-1 renal it was 3.64 µM; with EKVX NSCLC it was 23.7 µM.

As for `c1ccc2c(c1)CCc1[nH]c3c(c1-2)-c1ccccc1CC3`, the TGI in the experiment with OVCAR-4 ovarian, in the experiment with RXF 393 renal, with SK-OV-3 ovarian, in the experiment on SF-539 CNS, with SK-MEL-5 melanoma and in the experiment with ACHN renal was over 100 µM throughout. Moreover, the TGI with IGROV1 ovarian, in the experiment on SNB-75 CNS, with CAKI-1 renal and in the experiment on EKVX NSCLC was over 100 µM throughout.

Regarding `COC(=O)[C@H](CC(C)C)Nc1c(O)c2c(c(O)c1Cl)C(=O)C=CC2=O`, the TGI with OVCAR-4 ovarian, with RXF 393 renal, in the experiment with SK-OV-3 ovarian, with SF-539 CNS, in the experiment with SK-MEL-5 melanoma and with ACHN renal was over 10 µM each time. Besides, the TGI in the experiment with IGROV1 ovarian, with SNB-75 CNS, in the experiment with CAKI-1 renal and in the experiment with EKVX NSCLC was over 10 µM throughout.

On to `Cc1c2ccncc2c(C)c2c1[nH]c1ccc(OCC(F)(F)F)cc12`, for which the TGI turned out to be 3.48 µM in the experiment on OVCAR-4 ovarian; 3.46 µM in the experiment with RXF 393 renal; 3.31 µM in the experiment on SK-OV-3 ovarian; 3.16 µM in the experiment on SF-539 CNS; 3.35 µM in the experiment on SK-MEL-5 melanoma; 2.88 µM in the experiment on ACHN renal. Moreover, the TGI is 3.03 µM in the experiment with IGROV1 ovarian, 3.65 µM in the experiment with SNB-75 CNS, 3.66 µM in the experiment on CAKI-1 renal and 3.09 µM with EKVX NSCLC.

For the molecule `CCOC(=O)c1[nH]cc(C)c1-c1ccc2c(-c3ccccc3)nc3ccccc3n12`, the TGI in the experiment with OVCAR-4 ovarian turned out to be 16.1 µM; in the experiment with RXF 393 renal, 7.22 µM; in the experiment with SK-OV-3 ovarian, 23.5 µM; in the experiment with SF-539 CNS it was 9.04 µM; with SK-MEL-5 melanoma, 6.29 µM; with ACHN renal, 15.5 µM. Also, the TGI in the experiment with IGROV1 ovarian came to 16.1 µM; in the experiment with SNB-75 CNS it was 5.87 µM; in the experiment on CAKI-1 renal it was 17.8 µM; in the experiment on EKVX NSCLC it was 18.2 µM.

As for `COC1(O)c2cccc(Cl)c2C(=O)N1C1(C(N)=O)CCCCC1` (stereo not drawn), the TGI in the experiment on OVCAR-4 ovarian, in the experiment on RXF 393 renal, with SK-OV-3 ovarian, in the experiment with SF-539 CNS, in the experiment on SK-MEL-5 melanoma and with IGROV1 ovarian was over 100 µM in each case. For the same molecule, the TGI in the experiment on SNB-75 CNS, with CAKI-1 renal and in the experiment with EKVX NSCLC was over 100 µM throughout.

Consider `CC1CCC2(CC1)NC1=C(CC(C)CC1)C1=C2CC(C)CC1` (stereo not drawn), for which the TGI is 94.2 µM in the experiment on OVCAR-4 ovarian; 30.7 µM in the experiment with RXF 393 renal; over 100 µM in the experiment on SK-OV-3 ovarian; 40.6 µM in the experiment with SF-539 CNS; 24.4 µM in the experiment with SK-MEL-5 melanoma; 62.8 µM in the experiment on ACHN renal. Moreover, the TGI in the experiment on IGROV1 ovarian is over 100 µM; with SNB-75 CNS, 59.7 µM; in the experiment on CAKI-1 renal, 54.5 µM; in the experiment on EKVX NSCLC, over 100 µM.

As to `NN1C(=O)C(CCO)S/C1=N/N=C1/SC(CCO)C(=O)N1N` (stereo not drawn), the TGI with OVCAR-4 ovarian, with RXF 393 renal, in the experiment with SK-OV-3 ovarian, with SF-539 CNS, in the experiment on SK-MEL-5 melanoma and in the experiment with ACHN renal was over 100 µM throughout. In addition, the TGI with IGROV1 ovarian, in the experiment with SNB-75 CNS, with CAKI-1 renal and with EKVX NSCLC was over 100 µM each time.

`O=C(O)c1ccc(C2SCc3nc4ccccc4n32)cc1` (stereo not drawn): the TGI in the experiment with OVCAR-4 ovarian, in the experiment on RXF 393 renal, in the experiment with SF-539 CNS, with SK-MEL-5 melanoma, with ACHN renal and with IGROV1 ovarian was over 100 µM each time. Also, the TGI with SNB-75 CNS, in the experiment on CAKI-1 renal and with EKVX NSCLC was over 100 µM throughout.
